Measurements as given in ChEMBL document CHEMBL4483862, “Open-source discovery of chemical leads for next-generation chemoprotective antimalarials” (2018).
pIC50: −log10 of the molar value.

Tested on: Plasmodium berghei
Experiment: Luciferase/luciferin-expressing antifolate-resistant parasites were used to infect a culture of HepG2 cells that were pre-incubated with compounds. Infected hepatocytes emit light due to the luciferase reaction. Assay results are presented as the percent inhibition of light emission compared to control. […]
Format: functional
Settings: sporozoite; for IC90: read-out: LUCIFERASE INFECTION ASSAY - IC90
[1] = read-out: LUCIFERASE INFECTION ASSAY - IC50

| SMILES | IC90 [µM] | pIC50 [1] | also measured |
| --- | --- | --- | --- |
| O=C(c1cc2c(s1)CCC2)N1C=CN(c2ccc(C(F)(F)F)cn2)C1c1nccn1-c1ccc(C(F)(F)F)cn1 (stereo not drawn) | > 10 | – | pIC50 (FFLUC_HILL_SLOPE 2.58, FFLUC_R_SQUARED 0.668, PBLUC_HILL_SLOPE 14.8, PBLUC_R_SQUARED 0.174, read-out: LUCIFERASE INFECTION ASSAY - IC50): 5.04 |
| CCS(=O)(=O)N1CCC(C(=O)Nc2nnc(-c3ccc(Cl)cc3)o2)(c2ccccc2)CC1 | 1.21 | – | pIC50 (HEPG2TOX_HILL_SLOPE 1.78, 1.25, HEPG2TOX_R_SQUARED 0.428, 0.956, PBLUC_HILL_SLOPE 18.9, PBLUC_R_SQUARED 0.689, read-out: LUCIFERASE INFECTION ASSAY - IC50): 5.97 |
| Cc1c(C(=O)N/N=C/c2c3ccccc3c(Cl)c3ccccc23)nc2ccccn12 | > 10 | < 5.00 | – |
| Cc1cc(Br)ccc1OCC(=O)NC(C)c1ccccc1 (stereo not drawn) | > 9.48 | – | pIC50 (HEPG2TOX_HILL_SLOPE 4.44, HEPG2TOX_R_SQUARED 0.285, read-out: LUCIFERASE INFECTION ASSAY - IC50): < 5.02 |
| CCOc1ccc(S(=O)(=O)Nc2cc3c4c(oc3c3ccccc23)CC(C)(C)CC4=O)cc1 | 6.15 | – | pIC50 (HEPG2TOX_HILL_SLOPE 4.2, HEPG2TOX_R_SQUARED 0.972, PBLUC_HILL_SLOPE 5.12, PBLUC_R_SQUARED 0.622, read-out: LUCIFERASE INFECTION ASSAY - IC50): 5.40 |
| N#Cc1ccc(C(=O)Nc2ccc(Br)c(C(F)(F)F)c2)cc1 | 9.89 | – | pIC50 (HEPG2TOX_HILL_SLOPE 28, HEPG2TOX_R_SQUARED 0.813, PBLUC_HILL_SLOPE 18.1, PBLUC_R_SQUARED 0.807, read-out: LUCIFERASE INFECTION ASSAY - IC50): 5.06 |
| COc1cc(NC(=O)C(C)(C)n2cc(-c3ccc(OCCN4CCCC4)cc3)cn2)cc(OC)c1 | > 10 | < 5.00 | – |
| CCOc1cccc(-c2cn3c(-c4ccc(C(=O)N(C)C)cc4)cnc3cn2)c1 | 3.39 | – | pIC50 (PBLUC_HILL_SLOPE 14.8, PBLUC_R_SQUARED 0.204, read-out: LUCIFERASE INFECTION ASSAY - IC50): 5.53 |
| Cc1cn2c(CC(=O)Nc3ccc(C(F)(F)F)cc3)csc2n1 | 5.2 | – | pIC50 (FFLUC_HILL_SLOPE 1.95, FFLUC_R_SQUARED 0.137, HEPG2TOX_HILL_SLOPE 2.23, HEPG2TOX_R_SQUARED 0.859, PBLUC_HILL_SLOPE 8.61, PBLUC_R_SQUARED 0.683, read-out: LUCIFERASE INFECTION ASSAY - IC50): 5.39 |
| NC(=O)c1nc[nH]c1NC(=O)Cc1ccc(-c2ccccc2)cc1 | > 10 | – | pIC50 (PBLUC_HILL_SLOPE 1, PBLUC_R_SQUARED 0.17, read-out: LUCIFERASE INFECTION ASSAY - IC50): < 5.00 |
| FC(F)Sc1ccc(NC(=S)NC2CCCc3ccccc32)cc1 (stereo not drawn) | > 10 | < 5.00 | – |
| CSc1nccc(-c2sc(SC)c3c2CC(C)(C)CC3=O)n1 | > 9.41 | < 5.03 | – |
| N#CCCn1cc(/C=C(\C#N)c2nc3ccccc3[nH]2)c(-c2ccccc2)n1 | > 10 | < 5.00 | – |
| CCNC(=O)Cc1ccc(NC(=O)c2csc(Br)c2)cc1 | > 10 | – | pIC50 (FFLUC_HILL_SLOPE 10.6, FFLUC_R_SQUARED 0.0524, read-out: LUCIFERASE INFECTION ASSAY - IC50): < 5.00 |
| N#Cc1ncn(CC(=O)NCC2(N3CCOCC3)CCCCC2)n1 | > 10 | – | pIC50 (HEPG2TOX_HILL_SLOPE 0.0925, HEPG2TOX_R_SQUARED 0.157, read-out: LUCIFERASE INFECTION ASSAY - IC50): < 5.00 |
| Cc1nn2c(NCCN(C)C)cc(C(C)C)nc2c1-c1ccccc1 | > 9.78 | < 5.01 | – |
| Clc1cccc(-c2cnn3c(NCCCN4CCOCC4)ccnc23)c1 | > 8.87 | – | pIC50 (PBLUC_HILL_SLOPE 1.37, PBLUC_R_SQUARED 0.567, read-out: LUCIFERASE INFECTION ASSAY - IC50): 5.44 |
| CCc1sc(C(=O)Nc2nc(-c3ccc(CNC(C)=O)cc3)cs2)cc1C | > 10 | < 5.00 | – |
| COc1ccc(-c2cnc3cnc(-c4ccccc4C)cn23)cc1 | 0.0475 | – | pIC50 (HEPG2TOX_HILL_SLOPE 0.359, HEPG2TOX_R_SQUARED 0.561, PBLUC_HILL_SLOPE 8.88, PBLUC_R_SQUARED 0.713, read-out: LUCIFERASE INFECTION ASSAY - IC50): 7.43 |
| COc1cc(OC)cc(-c2cn3c(-c4ccc5c(c4)OCO5)cnc3cn2)c1 | > 8.79 | – | pIC50 (HEPG2TOX_HILL_SLOPE 7.71, HEPG2TOX_R_SQUARED 0.876, PBLUC_HILL_SLOPE 4.45, PBLUC_R_SQUARED 0.518, read-out: LUCIFERASE INFECTION ASSAY - IC50): 5.26 |
| CC(Sc1nnc(-c2ccc(C(C)(C)C)cc2)n1Cc1ccco1)C(=O)Nc1ccc(Cl)cn1 (stereo not drawn) | > 10 | < 5.00 | – |
| COc1ccccc1-c1nc2ccc(NC(=O)c3cc(C(C)(C)C)nn3C)cn2n1 | > 10 | < 5.00 | – |

| SMILES | IC90 [µM] | pIC50 [1] | also measured |
| --- | --- | --- | --- |
| Cc1cc(-c2cc(C(=O)Nc3nnc(C(F)(F)F)[nH]3)c3cnn(C(C)C)c3n2)c(C)s1 | > 10 | – | pIC50 (HEPG2TOX_HILL_SLOPE 1.32, HEPG2TOX_R_SQUARED 0.884, PBLUC_HILL_SLOPE 1.68, PBLUC_R_SQUARED 0.6, read-out: LUCIFERASE INFECTION ASSAY - IC50): 5.42 |
| CC(OC(=O)CCc1nc2cc(Cl)ccc2n(Cc2ccccc2)c1=O)C(=O)N1CCCC1 (stereo not drawn) | 5 | – | pIC50 (PBLUC_HILL_SLOPE 7.3, PBLUC_R_SQUARED 0.693, read-out: LUCIFERASE INFECTION ASSAY - IC50): 5.43 |
| COc1cc(/C=N/Nc2c(Cl)c(Cl)nc(C(=O)O)c2Cl)cc(OC)c1OC | > 10 | – | pIC50 (HEPG2TOX_HILL_SLOPE 0.214, HEPG2TOX_R_SQUARED 0.0951, read-out: LUCIFERASE INFECTION ASSAY - IC50): < 5.00 |
| COc1ccc(C(NC(=O)c2ccc(-n3cccc3)cc2)c2nccn2C)cc1 (stereo not drawn) | > 10 | < 5.00 | – |
| Cc1cccn2c(C(=O)NC3CCCCC3)c(NC(=O)c3cccc(F)c3)nc12 | > 8.37 | < 5.08 | – |
| COc1ccc(N2CCN(c3nccnc3-c3ccccc3)CC2)cc1OC | 0.978 | 6.42 | – |
| CCN(CC)S(=O)(=O)c1ccc(NC(=O)c2ccccc2Nc2cccc(C(F)(F)F)c2)cc1 | > 10 | – | pIC50 (FFLUC_HILL_SLOPE 1.74, FFLUC_R_SQUARED 0.823, read-out: LUCIFERASE INFECTION ASSAY - IC50): < 5.00 |
| NC(=O)c1cccc(-c2cn3c(-c4ccc(F)c(Cl)c4)cnc3cn2)c1 | > 9 | – | pIC50 (PBLUC_HILL_SLOPE 2.55, PBLUC_R_SQUARED 0.396, read-out: LUCIFERASE INFECTION ASSAY - IC50): 5.28 |
| OCCNc1ncnc2c1c(-c1ccccc1)cn2-c1ccc(Cl)cc1 | > 10 | – | pIC50 (FFLUC_HILL_SLOPE 35.7, FFLUC_R_SQUARED 0.282, read-out: LUCIFERASE INFECTION ASSAY - IC50): < 5.00 |
| CCOC(=O)c1c[nH]c2c(C)cc(Cl)cc2c1=O | > 12.4 | – | pIC50 (PBLUC_HILL_SLOPE 15.3, PBLUC_R_SQUARED 0.364, read-out: LUCIFERASE INFECTION ASSAY - IC50): 4.95 |
| Cc1cccc(C2CC(=O)c3cnn(-c4nc(C)cc(C)n4)c3C2)c1 (stereo not drawn) | 1.39 | – | pIC50 (HEPG2TOX_HILL_SLOPE 1.23, HEPG2TOX_R_SQUARED 0.907, PBLUC_HILL_SLOPE 2.7, PBLUC_R_SQUARED 0.565, read-out: LUCIFERASE INFECTION ASSAY - IC50): 6.21 |
| CCN(C(S)=Nc1cccnc1)c1cccc2ccccc12 | > 10 | – | pIC50 (HEPG2TOX_HILL_SLOPE 1.34, HEPG2TOX_R_SQUARED 0.711, PBLUC_HILL_SLOPE 4.21, PBLUC_R_SQUARED 0.184, read-out: LUCIFERASE INFECTION ASSAY - IC50): 5.12 |
| O=C(c1ccco1)N1CCC(Nc2nc(-c3cccs3)nc3sc4c(c23)CCCC4)CC1 | > 10 | < 5.00 | – |
| O=C(CSc1nnc(-c2c[nH]c3ccccc23)n1C1CC1)Nc1ccccc1N1CCCC1 | > 10 | – | pIC50 (HEPG2TOX_HILL_SLOPE 1.91, HEPG2TOX_R_SQUARED 0.598, PBLUC_HILL_SLOPE 0.845, PBLUC_R_SQUARED 0.661, read-out: LUCIFERASE INFECTION ASSAY - IC50): 5.44 |
| CC1(c2ccco2)NC(=O)N(NC(=O)c2ccc3ccccc3n2)C1=O (stereo not drawn) | > 10 | < 5.00 | – |
| CC(=O)c1sc(SCCS(=O)(=O)c2ccccc2)c2c1CC(C)(C)CC2=O | > 7.81 | < 5.11 | – |
| CCn1c2ccccc2c2cc(NC(C)C(=O)N3CCNC3=O)ccc21 (stereo not drawn) | 4.48 | – | pIC50 (PBLUC_HILL_SLOPE 2.83, PBLUC_R_SQUARED 0.574, read-out: LUCIFERASE INFECTION ASSAY - IC50): 5.69 |
| CCn1c(-c2ccccc2)c(C(=O)COc2ccc(F)cc2Br)c2ccccc21 | > 10 | – | pIC50 (FFLUC_HILL_SLOPE 1400, FFLUC_R_SQUARED 0.245, read-out: LUCIFERASE INFECTION ASSAY - IC50): < 5.00 |
| COc1cc(-c2[nH]nc3nccc(/C=C/c4ccccc4)c23)cc(OC)c1OC | 0.962 | – | pIC50 (HEPG2TOX_HILL_SLOPE 1.93, HEPG2TOX_R_SQUARED 0.947, PBLUC_HILL_SLOPE 2.35, PBLUC_R_SQUARED 0.701, read-out: LUCIFERASE INFECTION ASSAY - IC50): 6.42 |
| CC(C)c1ccc(-c2cnc3sc(NCCCO)nn23)cc1 | > 10.4 | < 4.98 | – |
| O=C(NCc1ccccc1)C1=CN2CCN(Cc3cccc(Cl)c3)C(=O)N=C2O1 | > 10 | – | pIC50 (FFLUC_HILL_SLOPE 9.9, FFLUC_R_SQUARED 0.0641, read-out: LUCIFERASE INFECTION ASSAY - IC50): < 5.00 |
| O=C1N(Cc2ccccn2)C(=O)C2(CCN(C3CCc4ccccc4C3)CC2)N1Cc1ccccc1 (stereo not drawn) | > 6.87 | – | pIC50 (PBLUC_HILL_SLOPE 10, PBLUC_R_SQUARED 0.136, read-out: LUCIFERASE INFECTION ASSAY - IC50): 5.19 |
